Source: patent US10611750B2, “Tetrahydroquinoline compositions as bet bromodomain inhibitors” (FORMA Therapeutics, Inc., priority 2013, dated 2020)
pIC50: −log10 of the molar value.

Tests used:
[1] = biological target: T1, BRD4 Bromodomain 2 (BRD4 BD2) (Homo sapiens, UniProt O60885); assay: AlphaScreen binding assay, BRD4 BD2; conditions: His-tagged BRD4 BD2 100 nM, biotinylated H4 (1-21) K5/8/12/16 tetra-acetylated peptide 100 nM, compounds listed under IC50 range headings
T1 construct: 333-460 were cloned, expressed, and purified to homogeneity
Outline: (§1)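 Compound dilution series were mixed with His-tagged BRD4 bromodomain and biotinylated tetra-acetylated H4 (1-21) peptide at pH 7.3 (BD1 and peptide at 50 nM, BD2 and peptide at 100 nM). Donor and acceptor beads were then added, and plates were equilibrated at least 1 h before reading. IC50 values were fitted with a four-parameter logistic model.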

[2] = biological target: T2, BRD4 Bromodomain 1 (BRD4 BD1) (Homo sapiens, UniProt O60885); assay: AlphaScreen binding assay, BRD4 BD1; conditions: His-tagged BRD4 BD1 50 nM, biotinylated H4 (1-21) K5/8/12/16 tetra-acetylated peptide 50 nM, compounds listed under IC50 range headings
T2 construct: 44-168 and BRD4 BD2
Outline: as §1

[3] = tested on: acute myelocytic leukemia (AML) cell line MV4-11; assay: Oncology cell growth assay (3-day proliferation, CellTiter-Glo); type: cell-based; conditions: Homo sapiens, MV4-11, 72 h, MV4-11 cells, 3000 cells/well, compounds listed under IC50 range headings, read-out: MV411 IC50 (gIC50, inhibition of proliferation)
Outline: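 MV4-11 AML cells (RPMI 1640, 10% FBS) plated at 3000 cells/well and exposed 72 h to compound at final 10 to 0.0045 μM (3-fold series). Viability read by CellTiter-Glo luminescence; gIC50 from four-parameter logistic fit between DMSO control and no-cell background.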

Compound	pIC50 [1]	pIC50 [2]	pIC50 [3]
CC(=O)N1c2ccc(-c3cnn(C4CC4)c3)c(OCC(=O)N3CCCCC3)c2CC[C@@H]1C [I-8, (S)-2-(1-acetyl-6-(1-cyclopropyl-1H-pyrazol-4-yl)-2-methyl-1,2,3,4-tetrahydroquinolin-5-yloxy)-1-(piperidin-1-yl)ethanone]	6.30 to 7.30	6.00 to 7.00	> 6.30
COC(=O)N1c2ccc(-c3cnn(C4CC4)c3)c(OCCF)c2CC[C@@H]1C [I-11, (S)-methyl 6-(1-cyclopropyl-1H-pyrazol-4-yl)-5-(2-fluoroethoxy)-2-methyl-3,4-dihydroquinoline-1(2H)-carboxylate]	> 7.30	5.00 to 6.00	< 6.00
COC(=O)N1c2ccc(-c3cnn(C4CC4)c3)c(OCCC(F)(F)F)c2CC[C@@H]1C [I-13, (S)-methyl 6-(1-cyclopropyl-1H-pyrazol-4-yl)-2-methyl-5-(3,3,3-trifluoropropoxy)-3,4-dihydroquinoline-1(2H)-carboxylate]	6.30 to 7.30	5.00 to 6.00	6.00 to 6.30
COC(=O)N1c2ccc(-c3cnn(C4CC4)c3)c(OC(F)(F)C(N)=O)c2CC[C@@H]1C [I-14, (S)-methyl 5-(2-amino-1,1-difluoro-2-oxoethoxy)-6-(1-cyclopropyl-1H-pyrazol-4-yl)-2-methyl-3,4-dihydroquinoline-1(2H)-carboxylate]	6.30 to 7.30	5.00 to 6.00	< 6.00
COC(=O)N1c2ccc(-c3cnn(C4CC4)c3)c(OCC(C)(C)CO)c2CC[C@@H]1C [I-17, (S)-methyl 6-(1-cyclopropyl-1H-pyrazol-4-yl)-5-(3-hydroxy-2,2-dimethylpropoxy)-2-methyl-3,4-dihydroquinoline-1(2H)-carboxylate]	6.30 to 7.30	6.00 to 7.00	6.00 to 6.30
COC(=O)N1c2ccc(-c3cnn(C4CC4)c3)c(O[C@H](F)C(N)=O)c2CC[C@@H]1C [I-19, (S)-methyl 5-((R)-2-amino-1-fluoro-2-oxoethoxy)-6-(1-cyclopropyl-1H-pyrazol-4-yl)-2-methyl-3,4-dihydroquinoline-1(2H)-carboxylate]	6.30 to 7.30	5.00 to 6.00	< 6.00
COC(=O)N1c2ccc(-c3cnn(C4CC4)c3)c(O[C@@H](F)C(N)=O)c2CC[C@@H]1C [I-20, (S)-methyl 5-((S)-2-amino-1-fluoro-2-oxoethoxy)-6-(1-cyclopropyl-1H-pyrazol-4-yl)-2-methyl-3,4-dihydroquinoline-1(2H)-carboxylate]	≤ 6.30	≤ 5.00	< 6.00
COC(=O)N1c2ccc(-c3cnn(C4CC4)c3)c(OCC(=O)N(C)C3CC3)c2CC[C@@H]1C [I-22, (S)-methyl 5-(2-(cyclopropyl(methyl)amino)-2-oxoethoxy)-6-(1-cyclopropyl-1H-pyrazol-4-yl)-2-methyl-3,4-dihydroquinoline-1(2H)-carboxylate]	> 7.30	6.00 to 7.00	> 6.30
COC(=O)N1c2ccc(-c3cnn(C4CC4)c3)c(OCC(=O)N3CCC3)c2CC[C@@H]1C [I-23, (S)-methyl 5-(2-(azetidin-1-yl)-2-oxoethoxy)-6-(1-cyclopropyl-1H-pyrazol-4-yl)-2-methyl-3,4-dihydroquinoline-1(2H)-carboxylate]	6.30 to 7.30	6.00 to 7.00	6.00 to 6.30
COC(=O)N1c2ccc(-c3cnn(C4CC4)c3)c(OCC(=O)N3CCCCC3)c2CC[C@@H]1C [I-24, (S)-methyl 6-(1-cyclopropyl-1H-pyrazol-4-yl)-2-methyl-5-(2-oxo-2-(piperidin-1-yl)ethoxy)-3,4-dihydroquinoline-1(2H)-carboxylate]	> 7.30	6.00 to 7.00	< 6.00
COC(=O)N1c2ccc(-c3cnn(C4CC4)c3)c(OCS(=O)(=O)N(C)C)c2CC[C@@H]1C [I-29, (S)-methyl 6-(1-cyclopropyl-1H-pyrazol-4-yl)-5-((N,N-dimethylsulfamoyl)methoxy)-2-methyl-3,4-dihydroquinoline-1(2H)-carboxylate]	6.30 to 7.30	5.00 to 6.00	< 6.00
COC(=O)N1c2ccc(-c3cnn(C4CC4)c3)c(OCCC3COC3)c2CC[C@@H]1C [I-30, (S)-methyl 6-(1-cyclopropyl-1H-pyrazol-4-yl)-2-methyl-5-(2-(oxetan-3-yl)ethoxy)-3,4-dihydroquinoline-1(2H)-carboxylate]	6.30 to 7.30	5.00 to 6.00	> 6.30
COC(=O)N1c2ccc(-c3cnn(C4CC4)c3)c(OCC3CC3(F)F)c2CC[C@@H]1C (stereo partly drawn) [I-31, (2S)-methyl 6-(1-cyclopropyl-1H-pyrazol-4-yl)-5-((2,2-difluorocyclopropyl)methoxy)-2-methyl-3,4-dihydroquinoline-1(2H)-carboxylate]	> 7.30	6.00 to 7.00	6.00 to 6.30
CCCOc1c(C2=CCN(C(=O)OC(C)(C)C)CC2)ccc2c1CC[C@H](C)N2C(C)=O [I-34, tert-butyl (S)-4-(1-acetyl-2-methyl-5-propoxy-1,2,3,4-tetrahydroquinolin-6-yl)-3,6-dihydropyridine-1(2H)-carboxylate]	6.30 to 7.30	≤ 5.00	< 6.00
CC(=O)N1c2ccc(-c3cnn(C4CC4)c3)c(OCC(F)(F)F)c2CC[C@@H]1C [I-35, (S)-1-(6-(1-cyclopropyl-1H-pyrazol-4-yl)-2-methyl-5-(2,2,2-trifluoroethoxy)-3,4-dihydroquinolin-1(2H)-yl)ethanone]	6.30 to 7.30	5.00 to 6.00	6.00 to 6.30
CC(=O)N1c2ccc(-c3cnn(C4CC4)c3)c(OCC(F)F)c2CC[C@@H]1C [I-36, (S)-1-(6-(1-cyclopropyl-1H-pyrazol-4-yl)-5-(2,2-difluoroethoxy)-2-methyl-3,4-dihydroquinolin-1(2H)-yl)ethanone]	> 7.30	5.00 to 6.00	6.00 to 6.30
CC(=O)N1c2ccc(-c3cnn(C4CC4)c3)c(OCC(C)(C)CO)c2CC[C@@H]1C [I-39, (S)-1-(6-(1-cyclopropyl-1H-pyrazol-4-yl)-5-(3-hydroxy-2,2-dimethylpropoxy)-2-methyl-3,4-dihydroquinolin-1(2H)-yl)ethanone]	> 7.30	6.00 to 7.00	6.00 to 6.30
CC(=O)N1c2ccc(-c3cnn(C4CC4)c3)c(OCCN3CCCC3=O)c2CC[C@@H]1C [I-42, (S)-1-(2-(1-acetyl-6-(1-cyclopropyl-1H-pyrazol-4-yl)-2-methyl-1,2,3,4-tetrahydroquinolin-5-yloxy)ethyl)pyrrolidin-2-one]	6.30 to 7.30	6.00 to 7.00	< 6.00
CC(=O)N1c2ccc(-c3cnn(C4CC4)c3)c(OCC(=O)N3CCOCC3)c2CC[C@@H]1C [I-43, (S)-2-(1-acetyl-6-(1-cyclopropyl-1H-pyrazol-4-yl)-2-methyl-1,2,3,4-tetrahydroquinolin-5-yloxy)-1-morpholinoethanone]	6.30 to 7.30	6.00 to 7.00	< 6.00
CC(=O)N1c2ccc(-c3cnn(C4CC4)c3)c(OCCN3CCCS3(=O)=O)c2CC[C@@H]1C [I-44, 2-(2-{[(2S)-1-acetyl-6-(1-cyclopropyl-1H-pyrazol-4-yl)-2-methyl-1,2,3,4-tetrahydroquinolin-5-yl]oxy}ethyl)-1λ^6,2-thiazolidine-1,1-dione]	> 7.30	6.00 to 7.00	6.00 to 6.30
CC(=O)N1c2ccc(-c3cnn(C4CC4)c3)c(OCS(=O)(=O)N(C)C)c2CC[C@@H]1C [I-46, (S)-(1-acetyl-6-(1-cyclopropyl-1H-pyrazol-4-yl)-2-methyl-1,2,3,4-tetrahydroquinolin-5-yloxy)-N,N-dimethylmethanesulfonamide]	6.30 to 7.30	5.00 to 6.00	6.00 to 6.30
CC(=O)N1c2ccc(-c3cnn(C4CC4)c3)c(OCC3CC3(F)F)c2CC[C@@H]1C (stereo partly drawn) [I-48, 1-((S)-6-(1-cyclopropyl-1H-pyrazol-4-yl)-5-((2,2-difluorocyclopropyl)methoxy)-2-methyl-3,4-dihydroquinolin-1(2H)-yl)ethanone]	> 7.30	> 7.00	> 6.30
CC(=O)N1c2ccc(-c3cnn(C4CC4)c3)c(OCC3(CO)COC3)c2CC[C@@H]1C [I-49, (S)-1-(6-(1-cyclopropyl-1H-pyrazol-4-yl)-5-((3-(hydroxymethyl)oxetan-3-yl)methoxy)-2-methyl-3,4-dihydroquinolin-1(2H)-yl)ethanone]	> 7.30	6.00 to 7.00	< 6.00
CC(=O)N1c2ccc(-c3cnn(C4CC4)c3)c(OCC3(F)COC3)c2CC[C@@H]1C [I-50, (S)-1-(6-(1-cyclopropyl-1H-pyrazol-4-yl)-5-((3-fluorooxetan-3-yl)methoxy)-2-methyl-3,4-dihydroquinolin-1 (2H)-yl)ethanone]	> 7.30	6.00 to 7.00	6.00 to 6.30
CC(=O)N1c2ccc(-c3cnn(C4CC4)c3)c(OC3CC(F)(F)C3)c2CC[C@@H]1C [I-51, (S)-1-(6-(1-cyclopropyl-1H-pyrazol-4-yl)-5-(3,3-difluorocyclobutoxy)-2-methyl-3,4-dihydroquinolin-1(2H)-yl)ethanone]	> 7.30	6.00 to 7.00	> 6.30
